Results published in ChEMBL document CHEMBL1139192, “Novel bis(indolyl)maleimide pyridinophanes that are potent, selective inhibitors of glycogen synthase kinase-3” (Bioorg Med Chem Lett, 2007).

Assays:
[1] = molecular target: Serine/threonine-protein kinase Chk2 (Homo sapiens) (UniProt O96017); assay: Inhibition of human CHK2 at 1 uM relative to control; values are per cent of control
[2] = molecular target: Tyrosine-protein kinase Lyn (Homo sapiens) (UniProt P07948); assay: Inhibition of human Lyn at 1 uM relative to control; values are per cent of control
[3] = molecular target: Epidermal growth factor receptor (Homo sapiens) (UniProt P00533); assay: Inhibition of human EGFR at 1 uM relative to control; values are per cent of control
[4] = molecular target: T1, Serine/threonine-protein kinase Chk1 (Homo sapiens) (UniProt O14757); assay: Inhibition of human CHK1 at 1 uM relative to control; values are per cent of control
T1 sequence (whole entry): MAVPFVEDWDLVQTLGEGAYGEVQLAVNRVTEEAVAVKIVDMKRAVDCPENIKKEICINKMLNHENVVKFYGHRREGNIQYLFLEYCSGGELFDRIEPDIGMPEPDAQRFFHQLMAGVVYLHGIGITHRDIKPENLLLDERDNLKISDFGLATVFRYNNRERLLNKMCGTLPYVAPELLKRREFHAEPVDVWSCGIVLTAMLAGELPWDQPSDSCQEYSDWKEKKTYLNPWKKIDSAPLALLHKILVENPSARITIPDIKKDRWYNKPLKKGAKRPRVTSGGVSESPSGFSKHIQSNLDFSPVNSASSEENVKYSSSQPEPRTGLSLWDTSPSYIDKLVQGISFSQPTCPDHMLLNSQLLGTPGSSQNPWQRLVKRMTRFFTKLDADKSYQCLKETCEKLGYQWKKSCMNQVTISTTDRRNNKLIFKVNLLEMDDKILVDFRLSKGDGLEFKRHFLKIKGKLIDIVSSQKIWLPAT

[5] = molecular target: Angiopoietin-1 receptor (Homo sapiens) (UniProt Q02763); assay: Residual activity of human Tie2 at 1 uM relative to control
[6] = molecular target: Tyrosine-protein kinase Fyn (Homo sapiens) (UniProt P06241); assay: Inhibition of human Fyn at 1 uM relative to control; values are per cent of control
[7] = molecular target: T2, Dual specificity mitogen-activated protein kinase kinase 4 (Mus musculus) (UniProt P47809); assay: Inhibition of mouse MKK4 Met at 1 uM relative to control; values are per cent of control
T2 sequence (whole entry): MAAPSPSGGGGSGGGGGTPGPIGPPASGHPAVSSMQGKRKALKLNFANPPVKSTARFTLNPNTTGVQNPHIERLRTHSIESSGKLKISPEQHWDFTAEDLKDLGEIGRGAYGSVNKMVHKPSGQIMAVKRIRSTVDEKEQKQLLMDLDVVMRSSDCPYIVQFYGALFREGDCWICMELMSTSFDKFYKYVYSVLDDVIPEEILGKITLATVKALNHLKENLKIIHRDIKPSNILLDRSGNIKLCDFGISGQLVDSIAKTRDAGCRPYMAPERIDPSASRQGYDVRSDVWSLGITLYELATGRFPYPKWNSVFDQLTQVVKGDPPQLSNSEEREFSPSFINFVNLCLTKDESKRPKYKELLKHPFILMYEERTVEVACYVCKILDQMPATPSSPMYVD

[8] = molecular target: Rho-associated protein kinase 2 (Rattus norvegicus) (UniProt Q62868); assay: Residual activity of rat ROCK2 at 1 uM relative to control
[9] = molecular target: T3, Inhibitor of nuclear factor kappa-B kinase subunit alpha (Homo sapiens) (UniProt O15111); assay: Residual activity of human IKKalpha at 1 uM relative to control
T3 sequence (whole entry): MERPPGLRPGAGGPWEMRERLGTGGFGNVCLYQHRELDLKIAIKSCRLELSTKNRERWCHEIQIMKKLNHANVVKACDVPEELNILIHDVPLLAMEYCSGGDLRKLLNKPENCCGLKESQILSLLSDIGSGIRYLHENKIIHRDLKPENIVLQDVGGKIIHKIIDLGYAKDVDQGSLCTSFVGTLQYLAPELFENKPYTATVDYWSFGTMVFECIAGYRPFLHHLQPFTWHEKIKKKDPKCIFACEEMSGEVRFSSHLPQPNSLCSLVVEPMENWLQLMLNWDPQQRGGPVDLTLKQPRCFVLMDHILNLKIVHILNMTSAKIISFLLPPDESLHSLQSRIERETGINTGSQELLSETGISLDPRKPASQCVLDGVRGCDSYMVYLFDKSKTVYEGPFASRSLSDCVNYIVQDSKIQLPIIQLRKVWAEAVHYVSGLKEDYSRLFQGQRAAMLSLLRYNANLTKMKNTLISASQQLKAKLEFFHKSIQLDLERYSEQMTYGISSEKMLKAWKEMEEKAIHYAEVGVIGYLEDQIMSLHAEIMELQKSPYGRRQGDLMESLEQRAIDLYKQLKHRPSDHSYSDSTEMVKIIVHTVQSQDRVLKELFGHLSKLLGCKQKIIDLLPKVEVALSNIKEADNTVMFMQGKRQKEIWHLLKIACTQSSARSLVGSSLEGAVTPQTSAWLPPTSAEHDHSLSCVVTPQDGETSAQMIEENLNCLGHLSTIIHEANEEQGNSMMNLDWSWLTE

Sequence of Rho-associated protein kinase 2 (Rattus norvegicus) (Q62868 whole entry, looked up): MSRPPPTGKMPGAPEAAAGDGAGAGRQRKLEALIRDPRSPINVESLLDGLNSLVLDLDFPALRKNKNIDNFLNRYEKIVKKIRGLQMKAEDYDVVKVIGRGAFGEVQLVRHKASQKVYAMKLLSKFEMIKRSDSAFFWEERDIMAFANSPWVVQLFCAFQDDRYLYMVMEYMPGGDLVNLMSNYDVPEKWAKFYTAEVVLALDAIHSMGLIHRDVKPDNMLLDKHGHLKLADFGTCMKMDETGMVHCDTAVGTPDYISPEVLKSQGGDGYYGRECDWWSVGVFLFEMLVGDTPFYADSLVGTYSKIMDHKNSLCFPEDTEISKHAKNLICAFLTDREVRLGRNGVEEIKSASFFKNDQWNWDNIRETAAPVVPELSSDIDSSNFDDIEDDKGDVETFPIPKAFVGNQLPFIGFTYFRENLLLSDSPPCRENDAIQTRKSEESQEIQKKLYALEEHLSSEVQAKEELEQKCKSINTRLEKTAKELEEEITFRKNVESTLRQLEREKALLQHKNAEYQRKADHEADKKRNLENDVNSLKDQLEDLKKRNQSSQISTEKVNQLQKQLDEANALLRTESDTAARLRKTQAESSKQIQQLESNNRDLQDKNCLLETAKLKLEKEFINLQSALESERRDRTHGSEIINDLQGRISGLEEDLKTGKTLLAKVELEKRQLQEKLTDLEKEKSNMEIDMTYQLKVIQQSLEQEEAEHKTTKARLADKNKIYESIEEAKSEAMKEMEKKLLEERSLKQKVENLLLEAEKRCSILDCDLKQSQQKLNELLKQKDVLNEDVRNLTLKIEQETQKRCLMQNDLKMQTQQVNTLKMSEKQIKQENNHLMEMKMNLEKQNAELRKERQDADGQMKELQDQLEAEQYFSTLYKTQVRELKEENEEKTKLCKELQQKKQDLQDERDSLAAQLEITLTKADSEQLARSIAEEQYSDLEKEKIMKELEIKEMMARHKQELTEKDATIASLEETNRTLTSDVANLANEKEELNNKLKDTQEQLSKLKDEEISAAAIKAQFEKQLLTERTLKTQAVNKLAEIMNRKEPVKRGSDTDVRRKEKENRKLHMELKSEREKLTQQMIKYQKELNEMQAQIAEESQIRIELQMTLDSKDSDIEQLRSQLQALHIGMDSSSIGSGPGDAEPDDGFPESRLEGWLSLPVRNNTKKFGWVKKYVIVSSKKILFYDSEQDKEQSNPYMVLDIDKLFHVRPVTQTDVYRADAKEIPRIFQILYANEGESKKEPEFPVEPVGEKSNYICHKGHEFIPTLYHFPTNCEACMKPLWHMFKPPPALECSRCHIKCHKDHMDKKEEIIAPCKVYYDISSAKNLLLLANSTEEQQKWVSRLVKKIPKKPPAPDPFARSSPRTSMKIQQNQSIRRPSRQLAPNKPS
Sequence of Serine/threonine-protein kinase Chk2 (Homo sapiens) (O96017 whole entry): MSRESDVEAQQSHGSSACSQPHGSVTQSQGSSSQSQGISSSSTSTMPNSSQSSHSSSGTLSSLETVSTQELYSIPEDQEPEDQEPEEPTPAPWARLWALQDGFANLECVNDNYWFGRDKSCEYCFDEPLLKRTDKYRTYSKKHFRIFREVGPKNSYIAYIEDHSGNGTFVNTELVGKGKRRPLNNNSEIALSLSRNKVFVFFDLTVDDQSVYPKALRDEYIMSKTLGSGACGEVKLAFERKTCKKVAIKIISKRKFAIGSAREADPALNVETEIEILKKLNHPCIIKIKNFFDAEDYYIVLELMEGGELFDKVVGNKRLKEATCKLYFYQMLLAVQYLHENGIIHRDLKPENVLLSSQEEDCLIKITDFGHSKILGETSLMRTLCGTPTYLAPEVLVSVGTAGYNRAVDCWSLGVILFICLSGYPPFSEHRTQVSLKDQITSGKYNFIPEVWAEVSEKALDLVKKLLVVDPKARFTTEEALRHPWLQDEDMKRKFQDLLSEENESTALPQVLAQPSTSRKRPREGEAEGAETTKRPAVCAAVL
Sequence of Epidermal growth factor receptor (Homo sapiens) (P00533 whole entry): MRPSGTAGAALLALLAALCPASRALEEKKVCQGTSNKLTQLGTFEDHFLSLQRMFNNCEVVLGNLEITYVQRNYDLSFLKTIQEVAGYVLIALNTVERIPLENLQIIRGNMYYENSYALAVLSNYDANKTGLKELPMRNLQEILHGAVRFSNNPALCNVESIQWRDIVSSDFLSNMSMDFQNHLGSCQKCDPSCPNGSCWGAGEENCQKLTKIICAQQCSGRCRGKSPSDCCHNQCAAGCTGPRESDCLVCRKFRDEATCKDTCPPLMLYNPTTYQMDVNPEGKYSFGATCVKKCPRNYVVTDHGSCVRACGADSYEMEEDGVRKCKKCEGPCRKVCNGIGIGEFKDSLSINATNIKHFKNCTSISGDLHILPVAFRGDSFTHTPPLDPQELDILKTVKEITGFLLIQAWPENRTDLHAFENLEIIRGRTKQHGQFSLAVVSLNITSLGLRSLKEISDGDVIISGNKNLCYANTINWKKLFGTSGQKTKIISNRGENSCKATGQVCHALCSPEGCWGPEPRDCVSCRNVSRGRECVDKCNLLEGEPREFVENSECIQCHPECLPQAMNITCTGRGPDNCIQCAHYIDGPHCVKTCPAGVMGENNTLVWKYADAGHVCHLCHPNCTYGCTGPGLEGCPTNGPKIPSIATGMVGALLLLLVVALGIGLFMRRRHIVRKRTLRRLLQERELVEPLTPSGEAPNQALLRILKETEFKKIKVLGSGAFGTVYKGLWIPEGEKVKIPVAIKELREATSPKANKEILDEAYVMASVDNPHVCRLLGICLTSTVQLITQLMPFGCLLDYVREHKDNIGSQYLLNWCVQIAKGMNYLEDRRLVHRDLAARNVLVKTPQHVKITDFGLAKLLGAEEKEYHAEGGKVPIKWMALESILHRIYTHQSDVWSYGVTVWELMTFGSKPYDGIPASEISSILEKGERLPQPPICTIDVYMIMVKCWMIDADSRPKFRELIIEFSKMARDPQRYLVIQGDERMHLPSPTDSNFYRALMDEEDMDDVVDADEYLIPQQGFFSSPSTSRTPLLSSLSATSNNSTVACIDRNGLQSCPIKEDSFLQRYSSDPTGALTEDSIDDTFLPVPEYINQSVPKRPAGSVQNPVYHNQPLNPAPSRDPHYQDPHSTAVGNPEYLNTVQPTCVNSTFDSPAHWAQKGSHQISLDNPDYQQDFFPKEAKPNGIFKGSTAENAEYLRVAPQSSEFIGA
Sequence of Tyrosine-protein kinase Lyn (Homo sapiens) (P07948 2-512 limits assumed): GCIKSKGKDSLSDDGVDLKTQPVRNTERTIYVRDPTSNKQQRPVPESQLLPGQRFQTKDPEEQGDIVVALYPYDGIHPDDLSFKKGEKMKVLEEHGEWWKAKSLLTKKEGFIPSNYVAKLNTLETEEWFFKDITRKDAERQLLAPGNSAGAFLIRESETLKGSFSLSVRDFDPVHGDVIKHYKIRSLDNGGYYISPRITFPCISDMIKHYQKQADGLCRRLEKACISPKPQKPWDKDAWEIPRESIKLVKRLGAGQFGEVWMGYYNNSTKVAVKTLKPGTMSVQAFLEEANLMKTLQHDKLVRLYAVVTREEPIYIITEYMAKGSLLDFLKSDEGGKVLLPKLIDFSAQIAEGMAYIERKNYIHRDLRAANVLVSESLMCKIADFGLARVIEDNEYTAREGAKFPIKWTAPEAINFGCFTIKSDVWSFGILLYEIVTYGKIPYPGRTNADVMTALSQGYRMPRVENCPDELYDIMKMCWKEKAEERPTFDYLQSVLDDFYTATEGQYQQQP
Sequence of Angiopoietin-1 receptor (Homo sapiens) (Q02763 whole entry): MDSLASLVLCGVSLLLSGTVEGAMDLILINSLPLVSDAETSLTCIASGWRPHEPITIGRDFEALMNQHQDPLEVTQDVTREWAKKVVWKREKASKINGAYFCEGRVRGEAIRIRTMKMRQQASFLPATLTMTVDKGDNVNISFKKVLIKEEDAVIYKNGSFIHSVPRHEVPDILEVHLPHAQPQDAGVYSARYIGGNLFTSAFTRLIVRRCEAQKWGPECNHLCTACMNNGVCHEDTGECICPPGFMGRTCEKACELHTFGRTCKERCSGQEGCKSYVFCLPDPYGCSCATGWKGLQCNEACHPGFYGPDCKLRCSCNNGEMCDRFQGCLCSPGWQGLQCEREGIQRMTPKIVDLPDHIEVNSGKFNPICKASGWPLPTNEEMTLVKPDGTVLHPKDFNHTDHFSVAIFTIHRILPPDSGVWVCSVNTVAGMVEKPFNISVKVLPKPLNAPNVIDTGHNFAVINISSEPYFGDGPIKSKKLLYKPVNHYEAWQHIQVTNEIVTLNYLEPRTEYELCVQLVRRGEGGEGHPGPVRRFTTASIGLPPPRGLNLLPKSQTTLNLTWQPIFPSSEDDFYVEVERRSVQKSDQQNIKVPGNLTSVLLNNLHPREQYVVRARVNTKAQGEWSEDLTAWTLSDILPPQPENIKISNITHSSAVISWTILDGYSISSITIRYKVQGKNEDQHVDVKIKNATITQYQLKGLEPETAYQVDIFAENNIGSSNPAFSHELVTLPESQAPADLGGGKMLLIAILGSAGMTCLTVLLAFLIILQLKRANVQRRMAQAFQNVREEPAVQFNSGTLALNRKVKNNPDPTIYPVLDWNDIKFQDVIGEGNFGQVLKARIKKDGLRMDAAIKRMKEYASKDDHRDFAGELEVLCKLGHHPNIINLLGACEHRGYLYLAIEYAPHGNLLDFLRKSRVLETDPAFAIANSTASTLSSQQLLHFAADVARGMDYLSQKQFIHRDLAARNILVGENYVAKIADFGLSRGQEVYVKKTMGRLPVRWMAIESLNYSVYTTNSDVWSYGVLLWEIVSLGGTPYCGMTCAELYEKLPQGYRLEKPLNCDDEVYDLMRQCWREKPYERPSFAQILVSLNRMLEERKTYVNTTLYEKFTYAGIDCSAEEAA

Compound	residual activity [1] [%]	residual activity [2] [%]	residual activity [3] [%]	residual activity [4] [%]	residual activity [5] [%]	residual activity [6] [%]	residual activity [7] [%]	residual activity [8] [%]	residual activity [9] [%]
CN(C)c1cc2cc(n1)CCCn1cc(c3ccccc31)C1=C(C(=O)NC1=O)c1cn(c3ccccc13)CCC2	94	76	96	101	109	106	119	92	133
O=C1NC(=O)C2=C1c1cn(c3ccccc13)CCCc1cc(nc(N3CCCC3)c1)CCCn1cc2c2ccccc21	84	87	108	110	96	106	119	83	132
O=C1NC(=O)C2=C1c1cn(c3ccccc13)CCCc1ccc(c(N3CCCC3)n1)CCCn1cc2c2ccccc21	91	78	104	106	107	103	113	91	121
CN(C)c1nc2ccc1CCCn1cc(c3ccccc31)C1=C(C(=O)NC1=O)c1cn(c3ccccc13)CC2	91	107	94	105	110	103	130	101	92
